One may read the Kd as the constant that tells how readily two partners part at equilibrium. Lower therefore signals tighter binding. A word on the MIC: it is the lowest concentration found to suppress growth. Read a high MIC as a need for much substance.

SMILES strings stand for the structures. Read-outs that look alike come from different tables or passages of the source. Square brackets hold non-standard residues; d marks the D form. Peptide text beside a SMILES is read from it. Cha = N[C@@H](CC1CCCCC1)C(=O)O

One test addresses Human PCNA (Homo sapiens, UniProt P12004). In words: ITC, peptide interaction with human PCNA. The following applies: ITC 30° C. The format is binding. On the procedure:
The inventors have compared the affinities of the prototypical P7 SC-binding peptide for the bacterial SC and for the eukaryotic functional homolog “Proliferating Cell Nuclear Antigen” PCNA. The same analysis was performed with the DPD1 peptide that contains a well-described specific PCNA Interacting Peptide (PIP) sequence ([…]).
(In general: In ITC the heat of successive injections is recorded.)

Test [1] deals with T1, E. coli SC (^EcSC, beta ring, DnaN) (Escherichia coli, UniProt P0A988).
T1 construct: inferred from the pET15b vector and the Ni-NTA/imidazole purification; made in house; host or cells: E. coli BL21 (DE3) pLys
Briefly: ITC, peptide interaction with E. coli sliding clamp. The format is binding.

In another test the test system is E. coli. The note with it: cited from earlier work.
Test [2] relates to E. coli ATCC 25922 (DSM 1103) strain. Format: cell-based. The following applies: ATCC 25922, 36 h. The procedure: E. coli strains were cultivated on either agar or liquid 1× Mueller Hinton broth unless specified. MIC assays were performed in duplicate in 96-well microtiter plates on the basis of the protocol recommended by the Clinical and Laboratory Standards Institute. Briefly, a mix of 5-6 fresh (less than 36 hours) colonies grown on MH agar plates were inoculated in 3 ml of MH broth and incubated for about 16 h at 37° C. under agitation. 30 μl of this saturated culture were inoculated in 3 ml of fresh medium and allowed to grow until OD600 nm of about 0.6-0.8. Dilution to an OD600 nm of 0.002 was made in MH broth. Within a time laps not exceeding 30 min, 50 μl of this cell suspension was added to 50 μl of MH broth (containing or not the peptide/antibiotic diluted in MH broth) in wells of a 96-well round bottom microwell plate (Greiner; final cell density about 2 to 5×10^5 cfu/ml). Plates were incubated at 37° C. for 18-24 h and final turbidity of each well was measured at 620 nm using a Multiskan FC microplate reader (Thermo Scientific). MIC was defined as the minimal antibiotic concentration that result in no increase of turbidity at that time. Each MIC determination was performed in duplicate and at least in two independent experiments. Plating of 75 μl of the content of the wells of interest on LB Agar plates was used to determine the MBC that is defined by a decrease of at least 99.9% of cell viability as compared to the number of viable cells in the inoculum (about 2 to 5×10^4 cfu).
The antimicrobial activities of these peptides have been tested against the E. coli ATCC 25922 (DSM 1103) strain in 1× Mueller-Hinton broth as mentioned above.
The antimicrobial activities of these peptides and controls have been tested against the E. coli ATCC 25922 (DSM 1103) strain in 1× Mueller-Hinton broth.

Another test has as its target T2, E coli β SC (Escherichia coli, UniProt P0A988).
T2 construct: endogenous in cells; host or cells: E. coli D22
In words: Co-immunoprecipitation of FITC peptides with E. coli β SC. Format: cell-based. The following applies: E. coli D22 cells, 1 hour, 16 μM FITC labelled peptide, FIG. 4. The procedure: FIG. 4 concerns the co-immunoprecipitation of FITC-K-Py-P7 peptide with the E coli β SC. E. coli D22 cells were incubated for 1 hour with or without 16 μM of the indicated FITC labelled peptide (lanes 1 and 5: no peptide; lanes 2 and 6: FITC-K-Pyr; lanes 3 and 7: FITC-K-Py-P7Scr; lanes 4 and 8: FITC-K-Py-P7). Lanes 1-4: 5% of the pre-cleared extracts were loaded as input controls. Lanes 5: Ig G sepharose beads pull down of the pre-cleared extracts not exposed to anti-FITC antibody. Lanes 6 to 8: Ig G sepharose beads pull down of the pre-cleared extracts previously incubated with FITC-labelled peptides and then exposed to anti-FITC antibody. Lanes 9-11: purified native β SC protein (lane 9: 5 ng; lane 10: 10 ng; lane 11: 20 ng). Upper image: western blot using the Ab 246, β SC specific monoclonal antibody. Lower image: total protein staining of the same membrane. M: Molecular weight markers.

The subject of the next test is E. coli D22 cells. The note with it: FITC staining after exposure to equal amounts, FIG. 1. The procedure:
FIG. 1 concerns the analysis of peptide penetration into E. coli cells. (a) Fluorescence microscopy of E. coli cells exposed to the three different FITC labeled peptides.
In order to analyse the penetration capacity of the peptides in E. coli D22 cells, FITC-labeled peptides were added to 1 ml of bacterial cultures (OD600=0.8) at a final concentration of 8 μg/ml. The cells were allowed to acquire the peptides for 1 h at 37° C., washed 3 times with 0.5 ml PBS, fixed with 1% formaldehyde solution in PBS for 45 min at room temperature, washed 3 times with 0.5 ml PBS and finally resuspended in 50 μl PBS. Cells were visualized using a Leica DM5500 microscope equipped with a 100× objective and images were processed using Fiji software. One-way ANOVA statistical analysis was performed with the R package.

[3] abbreviates: ITC 25° C., E. coli SC (beta ring).
Setting [4] is: ITC 30° C. (303.15 K), Table 2A, ^EcSC, Ni = no specific interaction.
Where [5] appears, read: ITC 30° C., Table 2A, ^EcSC, Ni = no specific interaction.

T1 sequence (P0A988 whole entry): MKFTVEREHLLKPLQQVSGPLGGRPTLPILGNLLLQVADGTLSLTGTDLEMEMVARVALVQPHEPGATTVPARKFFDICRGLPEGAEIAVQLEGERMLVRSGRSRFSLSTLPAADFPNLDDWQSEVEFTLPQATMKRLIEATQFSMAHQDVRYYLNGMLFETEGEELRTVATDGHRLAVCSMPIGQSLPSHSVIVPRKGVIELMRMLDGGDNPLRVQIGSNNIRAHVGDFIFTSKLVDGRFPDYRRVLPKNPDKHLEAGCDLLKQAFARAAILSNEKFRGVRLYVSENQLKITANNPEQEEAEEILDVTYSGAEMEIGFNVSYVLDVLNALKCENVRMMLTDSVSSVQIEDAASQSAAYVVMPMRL
Human PCNA, sequence (P12004 whole entry): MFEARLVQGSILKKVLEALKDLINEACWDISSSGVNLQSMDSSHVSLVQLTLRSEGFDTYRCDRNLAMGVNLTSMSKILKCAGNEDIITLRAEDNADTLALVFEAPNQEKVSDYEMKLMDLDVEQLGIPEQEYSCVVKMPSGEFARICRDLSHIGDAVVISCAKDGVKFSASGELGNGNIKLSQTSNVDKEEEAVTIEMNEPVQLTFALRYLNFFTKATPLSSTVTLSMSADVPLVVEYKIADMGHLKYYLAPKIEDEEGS
T2 sequence (P0A988 whole entry): as the sequence (P0A988 whole entry) above

As to `CC(=O)N[C@@H](CCC(N)=O)C(=O)N[C@@H](CC1CCCCC1)C(=O)N[C@@H](CC(=O)O)C(=O)N[C@@H](CC(C)C)C(=O)N[C@@H](Cc1ccccc1)C(=O)O` [Peptide P7, Ac-QChaDLF-OH, reference compound] (Ac-Q[Cha]DLF-OH), the “interaction with Human PCNA, in words” value at Human PCNA was “no interaction could be detected”. Besides, the “ΔG” value was -9.2 kcal/mol in test [1] (setting [3]) and -9.00 kcal/mol in test [1] (setting [5]). Besides, the “ΔH” value in test [1] (setting [3]) was -15.4 kcal/mol; in test [1] (setting [4]), -13.7 kcal/mol; in test [1] (ITC 30° C., E.coli SC, specificity comparison with PCNA) it was -12.05 kcal/mol. In test [1] (setting [5]), the “−TΔS” value came out at 4.71 kcal/mol. This compound registered a Kd in test [1] (dissociation constant (Kd) for ^EcSC, at 30° C.) of 400 nM. The “fold increase of affinity for ^EcSC compared to natural SC binding peptide (RQLVLGL)” value in test [1] (versus RQLVLGL from E. coli DNA polymerase IV) is recorded as 50 fold.

As to `CC[C@H](C)[C@H](NC(=O)[C@@H](CCCNC(=N)N)NC(=O)[C@H](CCCNC(=N)N)NC(=O)[C@@H]1CCCN1C(=O)[C@@H]1CCCN1C(=O)[C@H](CCCNC(=N)N)NC(=O)[C@@H]1CCCN1C(=O)[C@H](CCCNC(=N)N)NC(=O)[C@@H]1CCCN1C(=O)[C@H](CC(C)C)NC(=O)[C@H](Cc1ccc(O)cc1)NC(=O)[C@@H]1CCCN1C(=O)[C@@H]1CCCN1C(=O)[C@H](CCCCN)NC(=O)[C@H](CC(=O)O)NC(=O)[C@@H](N)C(C)C)C(=O)N[C@@H](Cc1ccc(O)cc1)C(=O)N[C@@H](CC(N)=O)C(=O)N[C@H](CCCNC(=N)N)C(N)=O` [Peptide P28, reference compound] (H-VDKPPYLPRPRPPR[dR]IYN[dR]-NH2; N-terminus assumed), in test [1] (ITC 30° C.), the “interaction with ^EcSC, in words” value was “do not interact”. The “ΔH (kcal/mole)” value in test [1] (setting [4]) is listed as “Ni”. In test [1] (setting [5]), the “Kd (nM)” value is given as “Ni”, the “ΔG (kcal/mole)” value was “Ni” and the “−TΔS (kcal/mole)” value is given as “Ni”. Also, the “MIC of previous reports” value in the test on E. coli is 0.82 µM. In the test with E. coli (other E. coli strains and/or culture media), the “MIC of previous reports” value is 2 µg/mL. Further, in test [2], the minimal inhibitory concentration (MIC) was 2 to 8 µM.

Regarding `CC[C@H](C)[C@H](NC(=O)[C@@H](CCCNC(=N)N)NC(=O)[C@H](CCCNC(=N)N)NC(=O)[C@@H]1CCCN1C(=O)[C@@H]1CCCN1C(=O)[C@H](CCCNC(=N)N)NC(=O)[C@@H]1CCCN1C(=O)[C@H](CCCNC(=N)N)NC(=O)[C@@H]1CCCN1C(=O)[C@H](CC(C)C)NC(=O)[C@H](Cc1ccc(O)cc1)NC(=O)[C@@H]1CCCN1C(=O)[C@@H]1CCCN1C(=O)[C@H](CCCCN)NC(=O)[C@H](CC(=O)O)NC(=O)[C@@H](N)C(C)C)C(=O)N[C@@H](Cc1ccc(O)cc1)C(=O)N[C@@H](CC(N)=O)C(=O)N[C@H](CCCNC(=N)N)C(=O)N[C@@H](CC(N)=O)C(=O)NCC(=O)N1CCC[C@H]1C(=O)N[C@@H](CCCNC(=N)N)C(=O)N[C@@H](CCC(N)=O)C(=O)N[C@@H](CC1CCCCC1)C(=O)N[C@@H](CC(=O)O)C(=O)N[C@@H](CC(C)C)C(=O)N[C@@H](Cc1ccccc1)C(=O)O` [Peptide P30] (H-VDKPPYLPRPRPPR[dR]IYN[dR]NGPRQ[Cha]DLF-OH), in test [1] (setting [3]), the “ΔG” value is -9.2 kcal/mol and the “ΔH” value was -14.6 kcal/mol. Besides, the “interaction with ^EcSC, in words” value in test [1] (ITC 30° C.) is on record as “as efficiently as P7 alone”. Further, in test [1] (setting [4]), the “ΔH” value was -13.5 kcal/mol. In test [1] (setting [5]), the “ΔG” value was -9.28 kcal/mol and the “−TΔS” value stood at 4.2 kcal/mol. Also, the “MIC” value in test [2] fell in the range of 16 to 32 µM.

As for `CC[C@H](C)[C@H](NC(=O)[C@@H](CCCNC(=N)N)NC(=O)[C@H](CCCNC(=N)N)NC(=O)[C@@H]1CCCN1C(=O)[C@@H]1CCCN1C(=O)[C@H](CCCNC(=N)N)NC(=O)[C@@H]1CCCN1C(=O)[C@H](CCCNC(=N)N)NC(=O)[C@@H]1CCCN1C(=O)[C@H](CC(C)C)NC(=O)[C@H](Cc1ccc(O)cc1)NC(=O)[C@@H]1CCCN1C(=O)[C@@H]1CCCN1C(=O)[C@H](CCCCN)NC(=O)[C@H](CC(=O)O)NC(=O)[C@@H](N)C(C)C)C(=O)N[C@@H](Cc1ccc(O)cc1)C(=O)N[C@@H](CC(N)=O)C(=O)N[C@H](CCCNC(=N)N)C(=O)N[C@@H](CC(N)=O)C(=O)NCC(=O)N1CCC[C@H]1C(=O)N[C@@H](CCCNC(=N)N)C(=O)N[C@@H](CC1CCCCC1)C(=O)N[C@@H](Cc1ccccc1)C(=O)N[C@@H](CCC(N)=O)C(=O)N[C@@H](CC(C)C)C(=O)N[C@@H](CC(=O)O)C(=O)O` [Peptide P120] (H-VDKPPYLPRPRPPR[dR]IYN[dR]NGPR[Cha]FQLD-OH), in test [1] (ITC 30° C.), the “interaction with ^EcSC, in words” value was “fail to interact”. Further, the “ΔH (kcal/mole)” value in test [1] (setting [4]) is recorded as “Ni”. Further, in test [1] (setting [5]), the “Kd (nM)” value is “Ni”, the “ΔG (kcal/mole)” value was “Ni” and the “−TΔS (kcal/mole)” value is “Ni”.

`CC[C@H](C)[C@H](NC(=O)[C@@H]1CCCN1C(=O)[C@H](CCCNC(=N)N)NC(=O)[C@@H]1CCCN1C(=O)[C@@H]1CCCN1C(=O)[C@@H](NC(=O)[C@@H]1CCCN1C(=O)[C@H](CCCNC(=N)N)NC(=O)[C@@H]1CCCN1C(=O)[C@H](CC(C)C)NC(=O)[C@H](Cc1ccc(O)cc1)NC(=O)[C@H](CO)NC(=O)CNC(=O)[C@H](CCCCN)NC(=O)[C@H](CC(=O)O)NC(=O)[C@@H](NC(=O)[C@H](CCCCN)NC(=O)c1ccc2c(c1)C(=O)OC21c2ccc(O)cc2Oc2cc(O)ccc21)C(C)C)[C@@H](C)O)C(=O)N[C@@H](Cc1ccc(O)cc1)C(=O)N[C@@H](CC(N)=O)C(=O)N[C@@H](CCCNC(=N)N)C(=O)N[C@@H](CC(N)=O)C(=O)NCC(=O)N1CCC[C@H]1C(=O)N[C@@H](CCCNC(=N)N)C(=O)N[C@@H](CCC(N)=O)C(=O)N[C@@H](CC1CCCCC1)C(=O)N[C@@H](CC(=O)O)C(=O)N[C@@H](CC(C)C)C(=O)N[C@@H](Cc1ccccc1)C(=O)O` [Peptide P150]: in test [1] (ITC 30° C.), the “interaction with ^EcSC, in words” value is listed as “similarly interacts”. In test [1] (setting [4]), the “ΔH” value was -17.2 kcal/mol. Further, in test [1] (setting [5]), the “ΔG” value is -8.99 kcal/mol and the “−TΔS” value is 8.21 kcal/mol. For the same compound, the “binding of SC within the bacterial cytoplasm (co-immunoprecipitation), in words” value on E coli β SC is listed as “can efficiently bind SC”. The “entry into E. coli cells, times less efficiently than P122” value in the test on E. coli D22 cells was “about 3 times”.

(Values after patent US12098217B2, “Fusion peptides as antimicrobial agents” (CENTRE NATIONAL DE LA RECHERCHE SCIENTIFIQUE, priority 2019, dated 2024).)
